Earlier results in PMC7529705 (Biochemistry, 2020).
Entries after “also recorded” stand apart in the source; their conditions may differ. Where no end group is shown, it is not given here. me2a = asymmetric dimethylation (Arg)

System: WDR5
Settings: previously reported

H3R2me2a: Histone H3 1–7aa peptide, asymmetrically dimethylated at Arg2 (AR(me2a)TKQTA; UniProt P68431 2-8, looked up, fragment)
Interaction with WDR5: not to interact; also recorded: does not interact
